Experimental data from patent US11274115B2, “Imidazoquinoline derivatives and their use in therapy” (GLAXOSMITHKLINE BIOLOGICALS SA, priority 2016, dated 2022).

How the values were obtained:
Assay type in all cases: cell-based
human TLR8 = target: T1, human TLR8 (Homo sapiens, UniProt Q9NR97); test: hTLR8 agonist reporter assay in HEK293 cells (NFκB-SEAP)
T1 construct: host or cells: HEK293
T1 sequence (Q9NR97 27-1041): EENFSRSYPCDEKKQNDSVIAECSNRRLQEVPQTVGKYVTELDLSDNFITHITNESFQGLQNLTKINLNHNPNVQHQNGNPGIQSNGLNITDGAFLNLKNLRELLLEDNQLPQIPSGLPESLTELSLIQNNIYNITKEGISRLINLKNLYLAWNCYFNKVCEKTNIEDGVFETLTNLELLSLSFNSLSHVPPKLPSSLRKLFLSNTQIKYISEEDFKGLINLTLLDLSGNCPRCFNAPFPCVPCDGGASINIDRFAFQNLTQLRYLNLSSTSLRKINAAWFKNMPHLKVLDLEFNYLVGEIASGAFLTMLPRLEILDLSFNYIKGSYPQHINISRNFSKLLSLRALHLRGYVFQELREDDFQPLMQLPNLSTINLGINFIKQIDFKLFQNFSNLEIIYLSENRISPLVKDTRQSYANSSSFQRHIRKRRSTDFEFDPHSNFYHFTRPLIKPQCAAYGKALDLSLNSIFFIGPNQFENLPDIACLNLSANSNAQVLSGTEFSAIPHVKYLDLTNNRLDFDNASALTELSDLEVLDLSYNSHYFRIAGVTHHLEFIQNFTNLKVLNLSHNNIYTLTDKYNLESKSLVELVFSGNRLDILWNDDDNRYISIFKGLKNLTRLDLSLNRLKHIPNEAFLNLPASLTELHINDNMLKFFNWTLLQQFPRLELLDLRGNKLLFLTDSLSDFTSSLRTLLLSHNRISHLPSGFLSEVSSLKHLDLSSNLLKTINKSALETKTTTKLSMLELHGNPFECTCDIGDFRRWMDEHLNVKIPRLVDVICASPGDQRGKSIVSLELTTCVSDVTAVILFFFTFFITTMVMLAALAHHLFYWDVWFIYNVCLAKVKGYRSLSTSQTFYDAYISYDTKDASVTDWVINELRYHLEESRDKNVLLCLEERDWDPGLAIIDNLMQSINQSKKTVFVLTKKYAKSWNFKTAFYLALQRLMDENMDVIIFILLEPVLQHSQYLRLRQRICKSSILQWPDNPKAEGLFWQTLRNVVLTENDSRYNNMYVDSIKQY
Protocol: (§1) Assay for hTLR7 and hTLR8 Agonist Activity in HEK-293 Cells
(§2) Determination of TLR agonist activity was performed using the HEK293 […]. This assay measures TLR7 and TLR8 selectivity and potency of the compounds tested. HEK293 cells expressing human TLR7 or TLR8 and NFκB responsive Secreted Embryonic Alkaline Phosphatase (SEAP) reporter gene were obtained from InvivoGen (San Diego, Calif.). These cells were maintained in culture media of Dulbecco's Modified Eagle Medium (DMEM) (Invitrogen, Grand Island, N.Y.), 10% Fetal Bovine Serum (FBS) (Sigma, St. Louis, Mo.) and selection antibiotics (Invitrogen, and Invivogen). HEK293 stably transfected with human TLR7 (hTLR7) or human TLR8 (hTLR8) were stimulated for 24 h with aqueous formulations of test compounds and culture supernatants were analyzed for NFκB activation using the colorimetric SEAP detection kit QuantBlue (InvivoGen).

[1] = system: human peripheral blood mononuclear cells (hPBMCs); test: TNF-α induction in hPBMCs; settings: 24 h, FIG. 13
Protocol: (§3) Assays to Measure Cytokine Induction
(§4) Test compounds were evaluated for cytokine induction in human peripheral blood mononuclear cells (hPBMCs).
(§5) Primary human PBMCs were isolated from fresh blood from healthy donors via Ficoll gradient separation and plated at 0.5×10^6 cells/well in 96-well tissue culture plates (RPMI-1640 plus 10% FBS). hPBMCs were maintained with RPMI-1640 culture media (Invitrogen, Grand Island, N.Y.), antibiotics (Invitrogen) and 10% FBS (Sigma).
(§6) Incubation and Assays for IFN-γ, IFN-α and TNF-α
(§7) hPBMCs were stimulated for 24 h with aqueous formulations of test compounds. Culture supernatants were analyzed for TNF-α and IFN-γ induction using multiplex kits (FluoroKine multiplex kits from R&D Systems, Minneapolis, Minn.) and for IFN-α induction using human IFN-α VeriKine ELISA kit (Pestka Biomedical Laboratories, Inc., Piscataway, N.J.).

[2] = system: human peripheral blood mononuclear cells (hPBMCs); test: IFN-γ induction in hPBMCs; settings: 24 h, FIG. 11, another occasion
Protocol: as §3, §4, §5, §6, §7

[3] = system: human peripheral blood mononuclear cells (hPBMCs); test: IFN-α induction in hPBMCs; settings: 24 h, FIG. 12, another occasion
Protocol: as §3, §4, §5, §6, §7

human TLR7 = target: T2, human TLR7 (Homo sapiens, UniProt Q9NYK1); test: hTLR7 agonist reporter assay in HEK293 cells (NFκB-SEAP)
T2 construct: host or cells: HEK293
T2 sequence (Q9NYK1 27-1049): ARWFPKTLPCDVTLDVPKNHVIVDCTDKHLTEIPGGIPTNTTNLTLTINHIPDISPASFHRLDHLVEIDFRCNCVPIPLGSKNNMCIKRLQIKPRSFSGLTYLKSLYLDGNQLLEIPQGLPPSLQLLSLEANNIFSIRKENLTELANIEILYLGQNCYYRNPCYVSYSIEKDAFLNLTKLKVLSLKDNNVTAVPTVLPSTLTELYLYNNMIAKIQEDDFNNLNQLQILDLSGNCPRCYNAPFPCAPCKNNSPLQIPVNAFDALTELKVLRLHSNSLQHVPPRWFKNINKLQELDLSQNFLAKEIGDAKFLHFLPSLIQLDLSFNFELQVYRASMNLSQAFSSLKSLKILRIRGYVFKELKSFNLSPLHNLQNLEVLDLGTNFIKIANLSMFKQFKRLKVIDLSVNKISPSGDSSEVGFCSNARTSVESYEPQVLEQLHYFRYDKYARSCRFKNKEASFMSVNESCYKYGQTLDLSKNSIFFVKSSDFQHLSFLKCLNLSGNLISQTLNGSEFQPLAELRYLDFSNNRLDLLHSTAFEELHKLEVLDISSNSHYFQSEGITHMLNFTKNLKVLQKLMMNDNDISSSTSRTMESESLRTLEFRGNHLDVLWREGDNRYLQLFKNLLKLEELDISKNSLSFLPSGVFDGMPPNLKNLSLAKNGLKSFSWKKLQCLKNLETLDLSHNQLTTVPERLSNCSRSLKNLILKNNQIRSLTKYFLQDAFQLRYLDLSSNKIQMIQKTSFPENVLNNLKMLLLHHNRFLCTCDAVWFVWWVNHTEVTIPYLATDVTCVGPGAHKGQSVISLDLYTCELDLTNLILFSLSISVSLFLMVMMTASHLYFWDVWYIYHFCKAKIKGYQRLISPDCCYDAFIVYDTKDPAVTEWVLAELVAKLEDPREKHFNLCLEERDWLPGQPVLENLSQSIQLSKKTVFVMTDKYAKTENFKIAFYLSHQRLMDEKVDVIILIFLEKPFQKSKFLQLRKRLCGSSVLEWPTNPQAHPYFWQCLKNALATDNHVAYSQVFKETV
Protocol: as §1, §2

EC50 (human TLR8; Table 2, FIG. 4, another occasion, * = only very low levels of NFKB activation were detected, read-out: hTLR8 ED50): 2.8 µM | hTLR8 agonist activity, in words (human TLR8; text on Table 2, FIG. 4): potent agonist of hTLR7 and hTLR8 | EC50 (human TLR7; Table 2, FIG. 3, another occasion, * = only very low levels of NFKB activation were detected, read-out: hTLR7 ED50): 3.4 µM | hTLR7/8 ratio (human TLR7; Table 2, hTLR7 ED50 over hTLR8 ED50): 1.2 | hTLR7 agonist activity, in words (human TLR7; text on Table 2, FIG. 3): potent agonist of hTLR7 and hTLR8
Structure (SMILES): CCCCCCCC/C=C\CCCCCCCC(=O)OC[C@@H](O)COP(=O)(O)OCCOc1ccc2c(c1)nc(N)c1nc(CCCC)n(CCO)c12 [Example 3]
TNF-α induction, in words [1]: potent at inducing TNF-α | IFN-γ induction, in words [2]: potent at inducing IFN-γ and each was more potent than Comparative Example 3 | IFN-α induction, in words [3]: more potent at inducing IFN-α than Comparative Examples 1, 2 and 3 | relative potency hTLR7 versus hTLR8, in words (human TLR7; Table 2): approximately equally potent at both receptors
